Reference: patent publication US8703106B2, “Chlorine dioxide treatment for biological tissue” (priority 2009, dated 2014)

Experiments:
[1] = tested on: mixed PA/MRSA biofilm; assay: Biofilm kill in protein-rich (FBS) environment (Example 3); format: cell-based, Pseudomonas aeruginosa and Staphylococcus aureus; conditions: for Log Reduction in Organism Count: MRSA + PA
Description: (§1) Chlorine dioxide efficacy against biofilm in protein-rich environment A series of experiments were conducted to determine the effect of FBS on the kill of PA. MRSA and mixture PA/MRSA biofilms. Biofilms were grown as described in Example 1, Disks were immersed in 25 ml of FBS solution at double the target FBS concentration, and to that was added 25 ml of chlorine dioxide solution at double the target chlorine dioxide concentration. After the desired contact time, disks were removed from the treatment solutions, neutralized, and plated as described above.
(§2) Dosage is given both as the nominal dose based upon the initial chlorine dioxide concentration, and the actual dosage as estimated from the initial chlorine dioxide concentration and the decay relationships described above.
(§3) Columns 3-6 are measured data; columns 7-11 are calculated data. For K2 having a positive sign (such as Samples 20-21), it was assumed that there was insufficient FBS present to cause a material loss of chlorine dioxide. Therefore, for such samples, it was assumed that chlorine dioxide was unchanged over the time of the experiment FIG. 4 is a graph of the results.

[2] = tested on: PA biofilm; assay: as above; format: cell-based, Pseudomonas aeruginosa; conditions: for Log Reduction in Organism Count: PA
Description: as §1, §2, §3

[3] = Chlorine dioxide loss in fetal blood serum (FBS) solution; format: physicochemical
Description: A series of experiments were conducted to estimate and quantify the effect of blood serum on chlorine dioxide concentration. Solutions of chlorine dioxide and fetal blood serum (FBS) were prepared at different concentrations of chlorine dioxide and FBS, and the chlorine dioxide concentration was tracked using a Spectral Physics UV/Visible spectrophotometer with a direct insertion probe (1 mm path length).
The initial chlorine dioxide concentration was measured using a Hach Model 2400 UV/Vis spectrophotometer. A UV/Vis scan was then measured over the wavelength range of about […] using the direct insertion probe, and this was used to calculate the initial absorbance of the solution. FBS was then added, and UV/Vis scans were run periodically thereafter. The area of the chlorine dioxide absorbance peak was calculated for each scan, and the relative chlorine dioxide concentration at each time was calculated by dividing the area at each time point by the peak area of the initial scan (prior to FBS addition). Relative chlorine dioxide concentration was plotted versus time for each set of chlorine dioxide and FBS concentrations. […] The exponent K2 in the equation is an estimate of the decay rate of chlorine dioxide in the FBS solution. The weight ratio of FBS to chlorine dioxide was calculated by dividing, the mass of FBS added to the solution by the mass of chlorine dioxide in the solution.
as §2, §3

[4] = tested on: bacteria in wounds; assay: Pig wound model, chlorine dioxide with sonication (Example 5); format: in vivo; conditions: 400 ppm solution, 8 x 15 min, plus three 4 min sonications at about 20 kHz, 40% duty cycle
Description: An experiment was performed to assess the efficacy of a combination therapy of chlorine dioxide administration and sonication on bacterial levels in wounds. The animal model was a pig. Sixteen wounds were introduced and inoculated with bacteria as described in Example 6. On Day 2, treatment was administered. There were control wounds that were not treated with either chlorine dioxide or ultrasound. Test wounds were treated with ultrasonic energy for 4 minutes, using a frequency of about 20 kHz, a 40% duty cycle and a range of power intensities up to 3.5 W/cm^2; each test wound received a total of three sonication treatments. Test wounds were treated with a 400 ppm chlorine dioxide solution applied to each wound in 8 separate, contiguous applications of 15 minutes duration each (total of 120 minutes of exposure to 400 ppm chlorine dioxide) and each application used a fresh specimen of the solution. Each treated wound received a total of three×4 minute sonication over the course of the 2 hours of chlorine dioxide treatment.
Wounds were biopsied after treatment as described in Example 4.

## [O][Cl+][O-] [ClO2, chlorine dioxide]
[1]; Sample 17, FBS 131 mg/mg ClO2, 15.0 min, initial 191 ppm, nominal 2865, corrected 2236 ppm-min
  Log Reduction in Organism Count: 8.2 log
[1]; Sample 18, FBS 131 mg/mg ClO2, 40.0 min, initial 191 ppm, nominal 7640, corrected 5559 ppm-min
  Log Reduction in Organism Count: 8.2 log
[1]; Sample 19, FBS 104 mg/mg ClO2, 15.0 min, initial 240 ppm, nominal and corrected 3600 ppm-min
  Log Reduction in Organism Count: 8.2 log
[1]; Sample 20, FBS 104 mg/mg ClO2, 30.0 min, initial 240 ppm, nominal and corrected 7200 ppm-min
  Log Reduction in Organism Count: 8.2 log
[1]; Sample 21, FBS 104 mg/mg ClO2, 60.0 min, initial 240 ppm, nominal and corrected 14400 ppm-min
  Log Reduction in Organism Count: 8.2 log
[1]; mixed PA/MRSA biofilm, with FBS
  corrected dose rate resulting in complete kill: ≥ 2000 ppm-rain
[2]; PA biofilm, with FBS
  corrected dose rate resulting in complete kill: ≥ 2000 ppm-rain
[2]; Sample 27, FBS 131 mg/mg ClO2, 15.0 min, initial 191 ppm, nominal 2865, corrected 2236 ppm-min
  Log Reduction in Organism Count: 7.1 log
[2]; Sample 28, FBS 131 mg/mg ClO2, 40.0 min, initial 191 ppm, nominal 7640, corrected 5559 ppm-min
  Log Reduction in Organism Count: 7.1 log
[2]; Sample 29, FBS 104 mg/mg ClO2, 15.0 min, initial 240 ppm, nominal and corrected 3600 ppm-min
  Log Reduction in Organism Count: 7.1 log
[2]; Sample 30, FBS 104 mg/mg ClO2, 30.0 min, initial 240 ppm, nominal and corrected 7200 ppm-min
  Log Reduction in Organism Count: 7.1 log
[2]; Sample 31, FBS 104 mg/mg ClO2, 60.0 min, initial 240 ppm, nominal and corrected 14400 ppm-min
  Log Reduction in Organism Count: 7.1 log
[3]; 104 mg FBS/mg ClO2, initial 240 ppm, 15.0 min, assumed unchanged
  Final ClO2 Concentration: 240 ppm
[3]; 104 mg FBS/mg ClO2, initial 240 ppm, 30.0 min, assumed unchanged
  Final ClO2 Concentration: 240 ppm
[3]; 104 mg FBS/mg ClO2, initial 240 ppm, 60.0 min, assumed unchanged
  Final ClO2 Concentration: 240 ppm
[3]; 104 mg FBS/mg ClO2, initial 240 ppm, calculated, positive K2 taken as no loss
  Decay rate, K2: 0.0344
[3]; 131 mg FBS/mg ClO2, initial 191 ppm, 15.0 min, calculated
  Final ClO2 Concentration: 107 ppm
[3]; 131 mg FBS/mg ClO2, initial 191 ppm, 40.0 min, calculated
  Final ClO2 Concentration: 87 ppm
[3]; 131 mg FBS/mg ClO2, initial 191 ppm, calculated from K2=-0.00927(FBS/ClO2)+1
  Decay rate, K2: −0.2134
[4]; as a function of power intensity up to 3.5 W/cm^2
  bacterial counts in test wounds: decrease significantly (multiple log reductions)
[4]; at 3.5 W/cm^2
  bacterial kill in test wounds: substantially complete log kill
